From a melting point compilation (Tetko et al.; mined from patent text by program, amines drawn as free bases though some values may be those of a salt)

Row | melting point [°C] | SMILES
1 | 133 to 138 | CSc1ccc(CCOCCCCCC(C)NCC(O)c2ccc(O)c(NS(C)(=O)=O)c2)cc1 (configuration not stated)
2 | 140 to 141 | COc1ccc(C(=O)SC[C@@H](C)C(=O)N2CCC[C@H]2C(=O)O)cc1
3 | 161 to 162 | CN1CC(CCN2CCN(c3ncccn3)CC2)c2nc3ccccc3n2C1=O (configuration not stated)
4 | 223 | Cc1csc2[nH]cc(C(=O)c3ccc(Cl)cc3)c12
5 | 146 to 148 | O=C(Nc1nnn(CC(F)(F)F)n1)C(c1ccccc1)c1ccccc1
6 | 54 | COC(=O)[C@H](Cc1cc(F)cc(F)c1)NC(=O)OCc1ccccc1
7 | 235 | CCOc1cc(-c2cc(C(F)(F)F)n3ncc(C(=O)Nc4cccc(S(=O)(=O)N5CCOCC5)c4)c3n2)ccc1C(F)(F)F
8 | 154 to 156 | CCOC(=O)C(=O)Nc1nc(CN2CCN(C(c3ccccc3)c3ccccc3)CC2)c(Cl)s1
9 | 128 to 139 | CS(=O)(=O)NC1CCN(C(=O)Cn2nc(-c3ccncc3)cc2Cc2ccc(F)cc2)CC1
10 | 267 to 271 | COc1ccc2nc(COc3ccc(CC4SC(=O)NC4=O)cc3)n(C)c2c1 (configuration not stated)
11 | 270 | COc1ccc(N2CCN(c3ccc(Nc4nc(-c5ccccc5)cs4)cc3)CC2)cc1
12 | 283 to 286 | Cc1ccc(N2C(=O)C(O)=C(C(=O)c3ccc(C4CCCCC4)cc3)C2c2ccc(OC(F)(F)F)cc2)nn1 (configuration not stated)
13 | 95.5 to 96.5 | Cc1cccc(N2CCN(CCc3c(C)nc4ccccn4c3=O)CC2)c1
14 | 126 to 129 | CCSCCC(=O)NNC(=O)N1Cc2ccccc2Oc2ccc(Cl)cc21
15 | 116 to 118 | CCN1c2ncccc2C(=O)N(C)c2ccc(OC)nc21
16 | 196 | CC(=O)Nc1ccc(C=CC(=O)O)c(NC(=O)NC(=O)c2cc(F)c(F)cc2Cl)c1
17 | 92 to 98 | COc1cc(I)c(Cl)cc1C(=O)N1Cc2cccn2Cc2ccccc21
18 | 190 to 192 | CCN1CCCC(NC(=O)Cn2c(-c3ccc(Br)cc3)nc3cccnc32)C1 (configuration not stated)
19 | 94 to 95 | N[C@@H](Cc1cccc(OCC(F)(F)F)c1)[C@H](O)c1ccc(F)cc1 (racemic)
20 | 124 to 125 | COc1cc(C(=O)N(C(C)C)C2CCCCC2)ccc1Cn1c(CN(C)C)nc2cccnc21
21 | 78 to 80 | Cc1cc(-c2noc(C(F)F)n2)cc(C)c1OCCCc1cncs1
22 | 209 to 210 | CC(=O)NCCC(=O)Nc1cccc(-c2cc(-c3ccc(Cl)cc3O)nc(NC(=O)c3cccs3)c2C#N)c1
23 | 119 | Nn1nc(-c2ccc(Cl)cc2)cc1OCCN1CCCCC1
24 | 113 to 115 | Cc1cc(-c2cc(C(F)(F)F)nn2-c2ccc(S(N)(=O)=O)c(Cl)c2)ccc1-c1cscn1
25 | 204 to 206 | O=C(NCc1ccc(Cl)cc1)c1cn2c(CCO)cc3cc(CC4CCOCC4)cc(c1=O)c32

Row | melting point [°C] | SMILES
26 | 186 to 187 | COC(=O)c1ccc(-c2nc(-c3ccc(Cl)cc3)cs2)cc1
27 | 89 to 90 | Nc1sc2c(c1C(=O)c1ccc(I)cc1)CCN(C(=O)Nc1ccccc1)C2
28 | 90 | CCC1CCC(c2ccc(-c3cc(F)c(C(F)(F)Oc4cc(F)c(C(F)(F)F)c(F)c4)c(F)c3)c(F)c2)OC1 (configuration not stated)
29 | 106 to 108 | C[C@@H](O)c1nccc(N2CCN(c3cnc4ccccc4n3)CC2)n1
30 | 122 to 124 | CCCn1cc(Cc2ccc(C(=O)OC)cc2OC)c2cc(C=CCC(=O)N(C)C)ccc21
31 | 236 to 242 | CCNc1nc(-n2cc(C(=O)O)c(=O)c3cc(F)c(F)c(Cl)c32)c(F)cc1F
32 | 175 to 176 | COC(=S)NCc1cn(-c2cc(F)c(N3CCC(=O)CC3)c(F)c2)nn1
33 | 255 | Cc1cc(C)c2nc(Nc3ccc(CN)cc3)n(Cc3nc(C)ccc3O)c2c1
34 | 160 | C=C(Cc1ccccc1)C(=O)NN1CCN(C(=O)OC(C)(C)C)CC1
35 | 82 to 84 | COc1ccc2c(c1)CN(CCc1ccc(N)cc1)CC2
36 | 142 to 143 | CCOC(=O)c1cnc2nn(C)cc2c1N1CCN(C)CC1
37 | 102 to 103 | CC(C)[C@H]1c2ccc(F)cc2CC[C@]1(O)CCNCc1nc2ccccc2s1
38 | 188 | CCOC(=O)C1CN(C)c2nc3cc(F)c(F)cc3cc2C1=O (configuration not stated)
39 | 117 to 118 | COC(=O)c1cnc2c(C)cc(C)cc2c1-c1ccccc1Cl
40 | 102 to 104 | CCOC(=O)c1cc2c(n1CCN)CCCC2
41 | 175 to 176 | CCCCc1nc2c(N)nc3cccnc3c2n1CCN
42 | 183 to 185 | CCCCCCCNC(=O)Nc1ccc(-n2ccnc2)cc1C(=O)NCC1CCN(C(c2ccccc2)c2ccccc2)CC1
43 | 128 | COc1ccc(C(=O)NCCOc2cccc3c2OCCO3)c(OC)c1OC
44 | > 250 | Cc1nc(N)c2nc(C)n(CC3(O)CCC3)c2c1C
45 | 195 to 197 | CN1CCN(c2nccc(Oc3ccc(NC(=O)c4cc(F)cc(N5CCOCC5)c4)c4ccccc34)n2)CC1
46 | 208 to 209 | Cc1ccc(Nc2nc(=O)c3cccnc3s2)cc1
47 | 169 to 171 | Clc1ccc(-c2cc(C3CCN(CCc4ccccc4)CC3)n[nH]2)cc1
48 | 64 to 67 | c1ccc(OCCSCc2nnc(-c3ccc(OCCCCN4CCOCC4)cc3)o2)cc1
49 | 171 to 174 | CN(C)CCCC1CCN(C=Nc2ccc3c(c2)C(=O)c2ccc(N=CN4CCC(CCCN(C)C)CC4)cc2C3=O)CC1

Further lines, the compound ahead of its results:

Row | SMILES | melting point [°C]
50 | COc1ccc(-c2c[nH]c(-c3cccnc3)n2)cc1 | 184 to 186
51 | Cn1cc(C2=C(c3ccc4ccccc4c3)C(=O)NC2=O)c2ccccc21 | 180 to 184
52 | O=C=NC1(N=NC2(N=C=O)CCCCC2)CCCCC1 | 38 to 40
53 | Cc1ccc(-c2[nH]c(-c3cccnc3)nc2C(=O)Nc2nccs2)cc1 | > 200
54 | COC(=O)C(=O)c1ccc(C(=O)NCCOc2ccc3ccccc3c2)cc1 | 114 to 115
55 | CC(=O)CC(=O)NCc1ccccc1 | 84 to 86
56 | C[C@H](c1ccccc1)n1c(N)nc2c(N)nc3ccccc3c21 | 135 to 140
57 | O=C1C=C(Nc2ccccc2)C(=O)c2nccnc21 | 203 to 205
58 | COc1cccc2cc(C3CCN(C)CC3)oc12 | 74 to 75
59 | CCCCCCP1C(O)C(O)P(CCCCCC)C(O)C1O (configuration not stated) | 140 to 147
60 | O=C1NC(=O)C(Nc2ccc(CCNCC(O)COc3ccc(OCc4ccccc4)cc3)cc2)S1 (configuration not stated) | 152
61 | CCN(CC)CCOc1ccc(C(=O)c2c(-c3ccccc3)oc3ccccc23)cc1 | 125 to 127
62 | CCCCNC(=O)NS(=O)(=O)c1cccc(C(=O)OC)c1I | 163 to 167
63 | CNc1ccc(N)cc1[N+](=O)[O-] | 115 to 116
64 | CC(C)(C)c1cc(N=Nc2ccc(Cl)cc2Cl)c(O)c(C(C)(C)C)c1 | 164 to 168
65 | NC(C=Cc1ccccc1)=NO | 85 to 87
66 | CCN(CCCOc1ccc(C(=O)O)cc1)c1ccc(Cl)cc1 | 146 to 149
67 | CCCCC(=O)CC(=O)c1ccc(C2CCC(CC)CC2)cc1 (configuration not stated) | 90
68 | O=C(O)Cn1ncc(-c2ccccc2)c1-c1ccccc1 | 169 to 170
69 | O=S(CCCCNC(P(=O)(O)O)P(=O)(O)O)c1ccccn1 (configuration not stated) | 235 to 240
70 | O=C1Nc2ccccc2C12COc1ccc(Br)cc12 (configuration not stated) | 225 to 228
71 | C[C@H]1C[C@H](OC(=O)C(C)(C)Oc2ccc(-c3ccccc3)cc2)CC(C)(C)C1 (relative stereo) | 96
72 | CCOC(=O)C1OC1C(=O)NC(CC(C)C)C(=O)NCCC(C)CO (configuration not stated) | 92 to 95
73 | COC(=O)C(C)CC(=O)C(Cc1ccccc1)NC(=O)c1ccccc1 (configuration not stated) | 97 to 98.5
74 | O=c1ccc2c(-n3cccn3)nccc2[nH]1 | > 300
75 | CCOC(=O)COc1cccc(Br)c1CC(=O)O | 181 to 183
76 | O=[N+]([O-])c1cccc(-c2cc(C(O)c3ccnc(Cl)c3)cc3ccoc23)c1 (configuration not stated) | 178 to 180

Row | SMILES | melting point [°C]
77 | C=CCCc1ccc(C#N)c(O)n1 | 122 to 125
78 | N#Cc1ccc(-c2ccc3ccccc3c2)cc1Cn1cncn1 | 119 to 121
79 | CC1CN(c2ncc(Br)cc2C=O)CC1C (configuration not stated) | 98.5 to 99.5
80 | NCCSC(c1ccccc1)c1ccccc1 | 74
81 | O=[N+]([O-])c1ccc(Oc2cc(Cl)ncn2)cc1 | 125 to 127
82 | O=Cc1cc2c(ccc3ccoc32)c2ccccc12 | 164 to 166
83 | CC1=C(C(=O)OC(C)(C)C)C(c2ccc(F)cc2)C(C(=O)OC(C)(C)C)=C(C)N1 | 149 to 150
84 | Clc1cncnc1NCc1ccc(OCc2ccccc2)cc1 | 95 to 100
85 | COc1ccc(-n2c(-c3ccccc3)cnc2S)cc1 | 167
86 | CCc1cc(C(C)=O)c(O)cc1OCCCC(C)(C)C#N | 55 to 56
87 | CNC(=O)ON=C1COCCS1 | 105 to 106
88 | CCN(C(=O)Cl)c1ccc2c(c1)OCO2 | 68 to 69
89 | Cn1ncc2c(=O)[nH]cnc21 | 289 to 290
90 | C(=C1CCc2cccnc21)c1ccccc1 | 74 to 75
91 | CCCCCCCCCCCCOc1ccc2c(c1)C(CCNC(=O)CCC)CC2 (configuration not stated) | 68 to 69
92 | O=C(c1ccccc1)N(CCCn1cncn1)C1=Nc2cccc3cccc1c23 | 140 to 141
93 | O=Cc1cc(O)c(O)c(C=O)c1 | 192 to 195
94 | CCCC(C)(Cl)Cn1ncc(OCc2ccc(CC)cc2)c(Cl)c1=O (configuration not stated) | 81 to 83
95 | CCCCc1cc2ccccc2c(Oc2ccc(/C=C/C(=O)O)cc2)c1-c1ccc(O)cc1 | 107 to 109
96 | CC1=CC(C)(C)Nc2cc3oc(=O)cc(C)c3cc21 | 270 to 274
97 | CCOC=Nc1sc2c(c1C#N)CCN(C)C2 | 88 to 89
98 | CC(=O)c1c[nH]c(-c2ccc(O)cc2)n1 | 254 to 259
99 | COP(=O)(OC)C(O)=Cc1ccc(Cl)cc1 | 89 to 92
100 | Cc1nnc(-c2ccc3occ(-c4cnn(Cc5ccccc5)c4)c3n2)o1 | 194 to 195
101 | Cn1nnc(-c2ccc(-c3nnn(C)n3)nc2)n1 | 225 to 226
102 | O=C(O)Cc1cnc2c(NC(=O)c3c(Cl)cccc3Cl)cccc2c1 | > 250
